Our source for the fragment found values is patent US8148508 (dated 2012).

For data set [1], the system named is clostripain. The data set is described as follows: 10 mM Tris, 1 mM EDTA, 5 mM CaCl2 (pH 8.0), varying clostripain ratios. Particulars: 21° C.; also 40° C., up to 10 hr.
The test system of data set [2] is clostripain. The data set is described as follows: cell free extract containing T7tag-GSDR-[GLP-2(1-34)]6 precursor, pH 6.4 NaH2PO4, 1 mM CaCl2, 1 mM DTT. The conditions noted are these: 25° C., up to approximately 3 hours.
The test system of data set [3] is clostripain. The data set is described as follows: 50 mM HEPES buffer (pH 6.7), 1 mM CaCl2, 1 mM cysteine, 4.8 M urea, 10, 20 and 35% ethanol. Particulars: 25° C., up to 30 minutes.
Data set [4] concerns clostripain. The data set is described as follows: clostripain digestion under different pH conditions.
Data set [5] has as its system recombinant clostripain. The data set is described as follows: cell free extract with 0.2 units of recombinant clostripain per mg precursor polypeptide. Particulars: up to up to 3 hours.

With HADGSFSDEMNTILDNLAARDFINWLIQTKITDR, the fragment found result in data set [1] is “truncated GLP-2(21-34)”; in data set [2], “GLP-2 fragment (21-34)”.

Consider HGDGSFSDEMNTILDNLAARDFINWLIQTKITD, for which the figures for the fragment found result in data set [3], in data set [4] and in data set [5] were “GLP-2(21-33)”, “GLP-2(21-33)” and “GLP-2 fragment (21-33)”, respectively.
